Measured values taken from PMC4021529 (British Journal of Cancer, 2014).

Test: Adverse events
Assay type: in vivo, human
Conditions: for drug-related anaemia, incidence / drug-related leukopenia, incidence / drug-related neutropenia, incidence / drug-related thrombocytopenia, incidence: all doses
[1] = schedule A, 350 mg (n=3), irrespective of relatedness
[2] = schedule A, total (n=32), irrespective of relatedness
[3] = schedule B, 50 mg (n=4), irrespective of relatedness
[4] = schedule B, 100 mg (n=4), irrespective of relatedness
[5] = schedule B, 150 mg (n=16), irrespective of relatedness
[6] = schedule B, 200 mg (n=3), irrespective of relatedness
[7] = schedule B, total (n=27), irrespective of relatedness

## CC[C@@H]1C(=O)N(C)c2cnc(Nc3ccc(C(=O)N[C@H]4CC[C@H](N5CCN(CC6CC6)CC5)CC4)cc3OC)nc2N1C(C)C [volasertib]
Schedule A, 300 mg (n=17), irrespective of relatedness
  Thrombocytopenia grade 4, number of patients: 2 n
[1]
  Anaemia grade 3, number of patients: 2 n
  Anaemia grade 4, number of patients: 1 n
  Febrile neutropenia grade 3, number of patients: 1 n
  Leukopenia grade 3, number of patients: 2 n
  Neutropenia grade 4, number of patients: 3 n
  Thrombocytopenia grade 3, number of patients: 1 n
  Thrombocytopenia grade 4, number of patients: 2 n
Schedule A
  drug-related anaemia, incidence: 40.6%
  drug-related leukopenia, incidence: 56.3%
  drug-related neutropenia, incidence: 56.3%
  drug-related thrombocytopenia, incidence: 62.5%
[2]
  Abdominal pain grade 3, number of patients: 3 (9.4) n (%)
  Anaemia grade 3, number of patients: 8 (25.0) n (%)
  Anaemia grade 4, number of patients: 4 (12.5) n (%)
  Fatigue grade 3, number of patients: 2 (6.3) n (%)
  Febrile neutropenia grade 3, number of patients: 2 (6.3) n (%)
  Febrile neutropenia grade 4, number of patients: 1 (3.1) n (%)
  Hypokalaemia grade 3, number of patients: 1 (3.1) n (%)
  Ileus grade 3, number of patients: 1 (3.1) n (%)
  Infection grade 3, number of patients: 1 (3.1) n (%)
  Leukopenia grade 3, number of patients: 9 (28.1) n (%)
  Leukopenia grade 4, number of patients: 1 (3.1) n (%)
  Neutropenia grade 3, number of patients: 6 (18.8) n (%)
  Neutropenia grade 4, number of patients: 10 (31.3) n (%)
  Pain grade 3, number of patients: 1 (3.1) n (%)
  Thrombocytopenia grade 3, number of patients: 10 (31.3) n (%)
  Thrombocytopenia grade 4, number of patients: 5 (15.6) n (%)
  Upper GI haemorrhage grade 3, number of patients: 1 (3.1) n (%)
[3]
  Anaemia grade 3, number of patients: 1 n
  Infection grade 3, number of patients: 1 n
[4]
  Dyspnoea grade 3, number of patients: 1 n
  Hypokalaemia grade 3, number of patients: 1 n
[5]
  Abdominal pain grade 3, number of patients: 2 n
  Anaemia grade 3, number of patients: 1 n
  Anaemia grade 4, number of patients: 2 n
  Dizziness grade 3, number of patients: 1 n
  Fatigue grade 3, number of patients: 1 n
  Leukopenia grade 3, number of patients: 1 n
  Neutropenia grade 3, number of patients: 2 n
  Neutropenia grade 4, number of patients: 1 n
  Pain grade 3, number of patients: 2 n
  Rash grade 3, number of patients: 1 n
  Upper GI haemorrhage grade 3, number of patients: 1 n
  Vomiting grade 3, number of patients: 1 n
[6]
  Abdominal distension grade 3, number of patients: 1 n
  Anaemia grade 3, number of patients: 2 n
  Decreased appetite grade 3, number of patients: 1 n
  Fatigue grade 3, number of patients: 1 n
  Febrile neutropenia grade 3, number of patients: 1 n
  Hypokalaemia grade 3, number of patients: 1 n
  Ileus grade 3, number of patients: 2 n
  Infection grade 3, number of patients: 1 n
  Leukopenia grade 4, number of patients: 1 n
  Neutropenia grade 4, number of patients: 2 n
  Thrombocytopenia grade 3, number of patients: 2 n
  Upper GI haemorrhage grade 3, number of patients: 1 n
Schedule B
  drug-related anaemia, incidence: 18.5%
  drug-related leukopenia, incidence: 33.3%
  drug-related neutropenia, incidence: 33.3%
  drug-related thrombocytopenia, incidence: 14.8%
[7]
  Abdominal distension grade 3, number of patients: 1 (3.7) n (%)
  Abdominal pain grade 3, number of patients: 2 (7.4) n (%)
  Anaemia grade 3, number of patients: 4 (14.8) n (%)
  Anaemia grade 4, number of patients: 2 (7.4) n (%)
  Decreased appetite grade 3, number of patients: 1 (3.7) n (%)
  Dizziness grade 3, number of patients: 1 (3.7) n (%)
  Dyspnoea grade 3, number of patients: 1 (3.7) n (%)
  Fatigue grade 3, number of patients: 2 (7.4) n (%)
  Febrile neutropenia grade 3, number of patients: 1 (3.7) n (%)
  Hypokalaemia grade 3, number of patients: 2 (7.4) n (%)
  Ileus grade 3, number of patients: 2 (7.4) n (%)
  Infection grade 3, number of patients: 2 (7.4) n (%)
  Leukopenia grade 3, number of patients: 1 (3.7) n (%)
  Leukopenia grade 4, number of patients: 1 (3.7) n (%)
  Neutropenia grade 3, number of patients: 2 (7.4) n (%)
  Neutropenia grade 4, number of patients: 3 (11.1) n (%)
  Pain grade 3, number of patients: 2 (7.4) n (%)
  Rash grade 3, number of patients: 1 (3.7) n (%)
  Thrombocytopenia grade 3, number of patients: 2 (7.4) n (%)
  Upper GI haemorrhage grade 3, number of patients: 2 (7.4) n (%)
  Vomiting grade 3, number of patients: 1 (3.7) n (%)
